In patent US20230085307A1, “PYRIDAZINONE COMPOUND AND HERBICIDE” (NISSAN CHEMICAL CORPORATION, priority 2019, published 2023):

Experiments:
redroot pigweed [1] = assay: Test Example 5: herbicidal effect by foliage application, plastic box (Table 20, symbol N); type: in vivo, redroot pigweed (Amaranthus retroflexus); conditions: foliage application, 320 g/ha, three weeks after application
In short: (§1)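 Foliar spray test: emulsion formulation diluted in water to a set application rate, sprayed onto 14-day-old plants raised in diluvial soil at 25° C to 30° C under glass. Both herbicidal effect and crop effect rated visually three weeks later.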

barnyard grass [2] = assay: Test Example 5: herbicidal effect by foliage application, plastic box (Table 20, symbol H); type: in vivo, barnyard grass (Echinochloa crus-galli); conditions: foliage application, 320 g/ha, three weeks after application
In short: as §1

Italian ryegrass [3] = assay: Test Example 5: herbicidal effect by foliage application, plastic box (Table 20, symbol K); type: in vivo, Italian ryegrass (Lolium multiflorum); conditions: foliage application, 320 g/ha, three weeks after application
In short: as §1

Japanese bulrush = assay: Test Example 1: herbicidal activity, application before weed generation under submerged conditions (Table 16, symbol B); type: in vivo, Japanese bulrush (Schoenoplectus juncoides); conditions: 320 g/ha applied herbicide
In short: (§2)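 Alluvial soil was flooded to 4 cm depth, weed seeds were sown mixed and 2.5-leaf rice seedlings were transplanted. On sowing day, the compound's emulsion, diluted in water to a set dose, was applied to the water surface. Plants grew at 25–30 °C and were scored 0–5 after three weeks.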

lambsquarters [4] = assay: Test Example 5: herbicidal effect by foliage application, plastic box (Table 20, symbol O); type: in vivo, lambsquarters (Chenopodium album); conditions: foliage application, 320 g/ha, three weeks after application
In short: as §1

persian speedwell [5] = assay: Test Example 5: herbicidal effect by foliage application, plastic box (Table 20, symbol R); type: in vivo, Persian speedwell (Veronica persica); conditions: foliage application, 320 g/ha, three weeks after application
In short: as §1

Italian ryegrass [6] = assay: Test Example 4: herbicidal effect by soil treatment (Table 19, symbol K); type: in vivo, Italian ryegrass (Lolium multiflorum); conditions: amount of applied herbicide 320 g/ha
In short: (§3)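 Herbicidal effect was rated 3 weeks after treatment, using the scoring criteria of an earlier test. The compound, formulated as an emulsion and diluted in water to a set herbicide amount, had been sprayed uniformly on soil over freshly sown seeds. Growth took place in a greenhouse at 25° C. to 30° C.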

late watergrass = assay: Test Example 1: herbicidal activity, application before weed generation under submerged conditions (Table 16, symbol A); type: in vivo, late watergrass (Echinochloa oryzicola); conditions: 320 g/ha applied herbicide
In short: as §2

southern crabgrass [7] = assay: Test Example 4: herbicidal effect by soil treatment (Table 19, symbol F); type: in vivo, southern crabgrass (Digitaria ciliaris); conditions: amount of applied herbicide 320 g/ha
In short: as §3

rice flat sedge = assay: Test Example 3: herbicidal effect by foliage application, Wagner pot (Table 18, symbol E); type: in vivo, rice flat sedge (Cyperus iria); conditions: 320 g/ha
In short: (§4)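 Plants were sown in alluvial soil held under 0.1–0.5 cm standing water and grown 14 days in a greenhouse at 25–30 °C. An emulsifiable formulation, water-diluted to the set dose, was then sprayed onto the foliage, and effects were scored three weeks later using previously defined criteria.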

lambsquarters [8] = assay: Test Example 4: herbicidal effect by soil treatment (Table 19, symbol O); type: in vivo, lambsquarters (Chenopodium album); conditions: amount of applied herbicide 320 g/ha
In short: as §3

southern crabgrass [9] = assay: Test Example 5: herbicidal effect by foliage application, plastic box (Table 20, symbol F); type: in vivo, southern crabgrass (Digitaria ciliaris); conditions: foliage application, 320 g/ha, three weeks after application
In short: as §1

windgrass [10] = assay: Test Example 4: herbicidal effect by soil treatment (Table 19, symbol L); type: in vivo, windgrass (Apera spica-venti); conditions: amount of applied herbicide 320 g/ha
In short: as §3

chickweed [11] = assay: Test Example 5: herbicidal effect by foliage application, plastic box (Table 20, symbol P); type: in vivo, common chickweed (Stellaria media); conditions: foliage application, 320 g/ha, three weeks after application
In short: as §1

persian speedwell [12] = assay: Test Example 4: herbicidal effect by soil treatment (Table 19, symbol R); type: in vivo, Persian speedwell (Veronica persica); conditions: amount of applied herbicide 320 g/ha
In short: as §3

blackgrass [13] = assay: Test Example 4: herbicidal effect by soil treatment (Table 19, symbol J); type: in vivo, blackgrass (Alopecurus myosuroides); conditions: amount of applied herbicide 320 g/ha
In short: as §3

chickweed [14] = assay: Test Example 4: herbicidal effect by soil treatment (Table 19, symbol P); type: in vivo, common chickweed (Stellaria media); conditions: amount of applied herbicide 320 g/ha
In short: as §3

green foxtail [15] = assay: Test Example 5: herbicidal effect by foliage application, plastic box (Table 20, symbol G); type: in vivo, green foxtail (Setaria viridis); conditions: foliage application, 320 g/ha, three weeks after application
In short: as §1

Chinese sprangletop = assay: Test Example 3: herbicidal effect by foliage application, Wagner pot (Table 18, symbol D); type: in vivo, chinese sprangletop (Leptochloa chinensis); conditions: 320 g/ha
In short: as §4

oval-leafed pondweed = assay: Test Example 1: herbicidal activity, application before weed generation under submerged conditions (Table 16, symbol C); type: in vivo, oval-leafed pondweed (Monochoria vaginalis); conditions: 320 g/ha applied herbicide
In short: as §2

windgrass [16] = assay: Test Example 5: herbicidal effect by foliage application, plastic box (Table 20, symbol L); type: in vivo, windgrass (Apera spica-venti); conditions: foliage application, 320 g/ha, three weeks after application
In short: as §1

barnyard grass [17] = assay: Test Example 4: herbicidal effect by soil treatment (Table 19, symbol H); type: in vivo, barnyard grass (Echinochloa crus-galli); conditions: amount of applied herbicide 320 g/ha
In short: as §3

velvetleaf [18] = assay: Test Example 5: herbicidal effect by foliage application, plastic box (Table 20, symbol M); type: in vivo, velvetleaf (Abutilon theophrasti); conditions: foliage application, 320 g/ha, three weeks after application
In short: as §1

velvetleaf [19] = assay: Test Example 4: herbicidal effect by soil treatment (Table 19, symbol M); type: in vivo, velvetleaf (Abutilon theophrasti); conditions: amount of applied herbicide 320 g/ha
In short: as §3

false cleavers = assay: Test Example 4: herbicidal effect by soil treatment (Table 19, symbol Q); type: in vivo, false cleavers (Galium spurium); conditions: amount of applied herbicide 320 g/ha
In short: as §3

barnyard grass [20] = assay: Test Example 3: herbicidal effect by foliage application, Wagner pot (Table 18, symbol H); type: in vivo, barnyard grass (Echinochloa crus-galli); conditions: 320 g/ha
In short: as §4

redroot pigweed [21] = assay: Test Example 4: herbicidal effect by soil treatment (Table 19, symbol N); type: in vivo, redroot pigweed (Amaranthus retroflexus); conditions: amount of applied herbicide 320 g/ha
In short: as §3

wild oat [22] = assay: Test Example 5: herbicidal effect by foliage application, plastic box (Table 20, symbol I); type: in vivo, wild oat (Avena fatua); conditions: foliage application, 320 g/ha, three weeks after application
In short: as §1

green foxtail [23] = assay: Test Example 4: herbicidal effect by soil treatment (Table 19, symbol G); type: in vivo, green foxtail (Setaria viridis); conditions: amount of applied herbicide 320 g/ha
In short: as §3

wild oat [24] = assay: Test Example 4: herbicidal effect by soil treatment (Table 19, symbol I); type: in vivo, wild oat (Avena fatua); conditions: amount of applied herbicide 320 g/ha
In short: as §3

blackgrass [25] = assay: Test Example 5: herbicidal effect by foliage application, plastic box (Table 20, symbol J); type: in vivo, blackgrass (Alopecurus myosuroides); conditions: foliage application, 320 g/ha, three weeks after application
In short: as §1

Structure (SMILES): CCCC(=O)Oc1c(C)nn(C)c(=O)c1-c1c(-c2ccc(F)c(C)c2)sc2ccccc12 [1-052]
- herbicidal effect grade, N: redroot pigweed (redroot pigweed [1]): 3 (Herbicidal rate of 40% or more and less than 70%)
- herbicidal effect grade, H: barnyard grass (barnyard grass [2]): 3 (Herbicidal rate of 40% or more and less than 70%)
- herbicidal effect grade, K: Italian ryegrass (Italian ryegrass [3]): 0 (Herbicidal rate of 5% or less (almost no effect))
- Herbicidal effect on B: Japanese bulrush (grade 0-5) (Japanese bulrush): 1 (Herbicidal rate of 5% or more and less than 20%)
- herbicidal effect grade, O: lambsquarters (lambsquarters [4]): 3 (Herbicidal rate of 40% or more and less than 70%)
- herbicidal effect grade, R: persian speedwell (persian speedwell [5]): 1 (Herbicidal rate of 5% or more and less than 20%)
- herbicidal effect rating, K: Italian ryegrass (Italian ryegrass [6]): 1 (Herbicidal rate of 5% or more and less than 20%)
- Herbicidal effect on A: late watergrass (grade 0-5) (late watergrass): 3 (Herbicidal rate of 40% or more and less than 70%)
- herbicidal effect rating, F: southern crabgrass (southern crabgrass [7]): 1 (Herbicidal rate of 5% or more and less than 20%)
- herbicidal effect on E (rice flat sedge), rating 0-5 (rice flat sedge): 5 (Herbicidal rate of 90% or more (almost completely withered))
- herbicidal effect rating, O: lambsquarters (lambsquarters [8]): 2 (Herbicidal rate of 20% or more and less than 40%)
- herbicidal effect grade, F: southern crabgrass (southern crabgrass [9]): 2 (Herbicidal rate of 20% or more and less than 40%)
- herbicidal effect rating, L: windgrass (windgrass [10]): 0 (Herbicidal rate of 5% or less (almost no effect))
- herbicidal effect grade, P: chickweed (chickweed [11]): 5 (Herbicidal rate of 90% or more (almost completely withered))
- herbicidal effect rating, R: persian speedwell (persian speedwell [12]): 3 (Herbicidal rate of 40% or more and less than 70%)
- herbicidal effect rating, J: blackgrass (blackgrass [13]): 0 (Herbicidal rate of 5% or less (almost no effect))
- herbicidal effect rating, P: chickweed (chickweed [14]): 4 (Herbicidal rate of 70% or more and less than 90%)
- herbicidal effect grade, G: green foxtail (green foxtail [15]): 5 (Herbicidal rate of 90% or more (almost completely withered))
- herbicidal effect on D (Chinese sprangletop), rating 0-5 (Chinese sprangletop): 2 (Herbicidal rate of 20% or more and less than 40%)
- Herbicidal effect on C: oval-leafed pondweed (grade 0-5) (oval-leafed pondweed): 3 (Herbicidal rate of 40% or more and less than 70%)
- herbicidal effect grade, L: windgrass (windgrass [16]): 0 (Herbicidal rate of 5% or less (almost no effect))
- herbicidal effect rating, H: barnyard grass (barnyard grass [17]): 3 (Herbicidal rate of 40% or more and less than 70%)
- herbicidal effect grade, M: velvetleaf (velvetleaf [18]): 5 (Herbicidal rate of 90% or more (almost completely withered))
- herbicidal effect rating, M: velvetleaf (velvetleaf [19]): 0 (Herbicidal rate of 5% or less (almost no effect))
- herbicidal effect rating, Q: false cleavers (false cleavers): 0 (Herbicidal rate of 5% or less (almost no effect))
- herbicidal effect on H (barnyard grass), rating 0-5 (barnyard grass [20]): 3 (Herbicidal rate of 40% or more and less than 70%)
- herbicidal effect rating, N: redroot pigweed (redroot pigweed [21]): 0 (Herbicidal rate of 5% or less (almost no effect))
- herbicidal effect grade, I: wild oat (wild oat [22]): 0 (Herbicidal rate of 5% or less (almost no effect))
- herbicidal effect rating, G: green foxtail (green foxtail [23]): 4 (Herbicidal rate of 70% or more and less than 90%)
- herbicidal effect rating, I: wild oat (wild oat [24]): 0 (Herbicidal rate of 5% or less (almost no effect))
- herbicidal effect grade, J: blackgrass (blackgrass [25]): 0 (Herbicidal rate of 5% or less (almost no effect))
